This is an account of results in US20070129342A1, “Compositions Containing Ansamycin” (priority 2005, published 2007).

Read-outs that look alike come from different tables or passages of the source.

By Cmax is commonly meant the highest concentration seen after dosing. A word on the clearance: it is the rate of elimination divided by the concentration.

Series [1] is classed as physicochemical. The procedure:
It should be noted that other secondary emulsifiers (e.g., dimyristylphosphatidylglycerol (DMPG), Solutol HS15, and Tween 80) were tested at refrigerated temperature for droplet size stability improvement.

The conditions of series [2]: adult patients, cited from earlier work; for Cmax: read-out: Plasma Cmax.

With Tween 80, the “effect of secondary emulsifier on droplet size stability of the emulsion” value (“effect of secondary emulsifier” below) in series [1] is listed as “did not improve the droplet size stability”.

For the molecule `C=CCNC1=C2C[C@@H](C)C[C@H](OC)[C@H](O)[C@@H](C)/C=C(\C)[C@H](OC(N)=O)[C@@H](OC)/C=C\C=C(/C)C(=O)NC(=CC1=O)C2=O` [Formulation 17-AAG, 17-(allylamino)-17-demethoxygeldanamycin], the figures for the Cmax in series [2] (at 40 mg/m^2) and in series [2] (at 56 mg/m^2) were 1860 ± 660 nM and 3170 ± 1310 nM, respectively. Besides, in series [2] (daily 1-hour infusion for 5 days every three weeks), the “maximum tolerated dose (MTD)” value is 40 mg/m^2. Further, the clearance in series [2] (mean±SD) is 41.0 ± 13.5 L/h. The terminal half-life in series [2] (mean±SD) is 2.5 ± 0.5 h.

Consider `CCCCCCCC/C=C\CCCCCCCC(=O)O` [oleic acid, cis-9-octadecenoic acid], for which, in series [1], the “effect of secondary emulsifier” value is recorded as “showed improved stability”.

Turning to `CCCCCCCCCCCCCC(=O)OCC(COP(=O)(O)OCC(O)CO)OC(=O)CCCCCCCCCCCCC` (centres unmarked) [DMPG, dimyristylphosphatidylglycerol], the “effect of secondary emulsifier” value in series [1] is listed as “resulted in a viscous emulsion that would be difficult to draw a syringe”.
